Source: ChEMBL document CHEMBL5620374, “Synthesis and bioevaluation of novel stilbene-based derivatives as tubulin/HDAC dual-target inhibitors with potent antitumor activities in vitro and in vivo” (Eur J Med Chem, 2023)

Assays:
H22 = assay: Antitumor activity against mouse H22 cells allografted in ICR mouse assessed as tumor growth inhibition at 20 mg/kg, iv qd for 17 days consecutively relative to control; assay type: functional; settings: time 17 day, read-out: TGI
Histone deacetylase 3 = Histone deacetylase 3 (Homo sapiens, UniProt O15379); assay: Inhibition of HDAC3 derived from human HeLa cell extract using Ac-Leu-Gly-Lys (Ac)-AMC as substrate by fluorescence based assay; assay type: cell-free
Histone deacetylase 3, sequence (O15379 whole entry): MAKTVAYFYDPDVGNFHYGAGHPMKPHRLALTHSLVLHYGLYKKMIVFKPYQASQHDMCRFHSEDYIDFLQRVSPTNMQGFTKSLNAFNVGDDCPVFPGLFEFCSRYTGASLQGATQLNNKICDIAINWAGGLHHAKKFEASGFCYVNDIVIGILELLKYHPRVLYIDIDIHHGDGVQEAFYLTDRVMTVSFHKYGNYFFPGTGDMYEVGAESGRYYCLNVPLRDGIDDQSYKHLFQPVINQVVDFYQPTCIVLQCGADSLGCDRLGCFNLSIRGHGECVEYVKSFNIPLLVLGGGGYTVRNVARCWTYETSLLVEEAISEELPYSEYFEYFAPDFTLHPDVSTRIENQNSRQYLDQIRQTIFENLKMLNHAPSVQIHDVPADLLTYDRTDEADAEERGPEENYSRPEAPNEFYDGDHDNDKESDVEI

Histone deacetylase 7 = biological target: T1, Histone deacetylase 7 (Homo sapiens, UniProt Q8WUI4); assay: Inhibition of HDAC7 derived from human HeLa cell extract using Ac-Leu-Gly-Lys (Ac)-AMC as substrate by fluorescence based assay; assay type: cell-free
T1 sequence (Q8WUI4 whole entry): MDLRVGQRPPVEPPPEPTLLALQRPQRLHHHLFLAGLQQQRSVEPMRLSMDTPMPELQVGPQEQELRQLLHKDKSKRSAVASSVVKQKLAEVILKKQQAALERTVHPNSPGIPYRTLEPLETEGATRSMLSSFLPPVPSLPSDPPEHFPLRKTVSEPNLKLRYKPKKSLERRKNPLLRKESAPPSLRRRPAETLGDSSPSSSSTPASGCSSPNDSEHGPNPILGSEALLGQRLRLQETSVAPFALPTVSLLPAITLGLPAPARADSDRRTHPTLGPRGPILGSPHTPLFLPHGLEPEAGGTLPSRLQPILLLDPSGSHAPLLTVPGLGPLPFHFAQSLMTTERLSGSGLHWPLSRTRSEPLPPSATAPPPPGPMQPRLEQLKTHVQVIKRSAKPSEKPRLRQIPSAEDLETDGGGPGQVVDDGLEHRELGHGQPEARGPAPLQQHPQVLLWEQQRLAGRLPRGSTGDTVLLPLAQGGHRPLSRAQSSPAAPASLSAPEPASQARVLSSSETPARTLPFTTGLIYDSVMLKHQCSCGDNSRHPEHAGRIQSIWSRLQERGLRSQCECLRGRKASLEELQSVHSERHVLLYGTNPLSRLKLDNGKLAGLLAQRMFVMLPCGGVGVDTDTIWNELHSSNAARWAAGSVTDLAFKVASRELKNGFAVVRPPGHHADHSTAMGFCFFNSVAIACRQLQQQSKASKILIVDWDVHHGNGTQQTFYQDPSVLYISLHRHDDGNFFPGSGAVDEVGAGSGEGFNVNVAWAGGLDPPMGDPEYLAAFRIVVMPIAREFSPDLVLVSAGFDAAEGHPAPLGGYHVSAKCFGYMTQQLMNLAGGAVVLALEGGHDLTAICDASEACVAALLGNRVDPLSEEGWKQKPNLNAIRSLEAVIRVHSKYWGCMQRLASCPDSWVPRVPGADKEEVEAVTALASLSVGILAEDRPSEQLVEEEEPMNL

B16-F10 = assay: Antiproliferative activity against mouse B16-F10 cells incubated for 72 hrs by MTT assay; assay type: functional, cell-based; settings: B16-F10, 72 h
[1] = biological target: T2, Protein deacetylase HDAC6 (Homo sapiens, UniProt Q9UBN7); assay: Inhibition of HDAC6 derived from human HeLa cell extract using Ac-Leu-Gly-Lys (Ac)-AMC as substrate by fluorescence based assay; assay type: cell-free
T2 sequence (Q9UBN7 whole entry): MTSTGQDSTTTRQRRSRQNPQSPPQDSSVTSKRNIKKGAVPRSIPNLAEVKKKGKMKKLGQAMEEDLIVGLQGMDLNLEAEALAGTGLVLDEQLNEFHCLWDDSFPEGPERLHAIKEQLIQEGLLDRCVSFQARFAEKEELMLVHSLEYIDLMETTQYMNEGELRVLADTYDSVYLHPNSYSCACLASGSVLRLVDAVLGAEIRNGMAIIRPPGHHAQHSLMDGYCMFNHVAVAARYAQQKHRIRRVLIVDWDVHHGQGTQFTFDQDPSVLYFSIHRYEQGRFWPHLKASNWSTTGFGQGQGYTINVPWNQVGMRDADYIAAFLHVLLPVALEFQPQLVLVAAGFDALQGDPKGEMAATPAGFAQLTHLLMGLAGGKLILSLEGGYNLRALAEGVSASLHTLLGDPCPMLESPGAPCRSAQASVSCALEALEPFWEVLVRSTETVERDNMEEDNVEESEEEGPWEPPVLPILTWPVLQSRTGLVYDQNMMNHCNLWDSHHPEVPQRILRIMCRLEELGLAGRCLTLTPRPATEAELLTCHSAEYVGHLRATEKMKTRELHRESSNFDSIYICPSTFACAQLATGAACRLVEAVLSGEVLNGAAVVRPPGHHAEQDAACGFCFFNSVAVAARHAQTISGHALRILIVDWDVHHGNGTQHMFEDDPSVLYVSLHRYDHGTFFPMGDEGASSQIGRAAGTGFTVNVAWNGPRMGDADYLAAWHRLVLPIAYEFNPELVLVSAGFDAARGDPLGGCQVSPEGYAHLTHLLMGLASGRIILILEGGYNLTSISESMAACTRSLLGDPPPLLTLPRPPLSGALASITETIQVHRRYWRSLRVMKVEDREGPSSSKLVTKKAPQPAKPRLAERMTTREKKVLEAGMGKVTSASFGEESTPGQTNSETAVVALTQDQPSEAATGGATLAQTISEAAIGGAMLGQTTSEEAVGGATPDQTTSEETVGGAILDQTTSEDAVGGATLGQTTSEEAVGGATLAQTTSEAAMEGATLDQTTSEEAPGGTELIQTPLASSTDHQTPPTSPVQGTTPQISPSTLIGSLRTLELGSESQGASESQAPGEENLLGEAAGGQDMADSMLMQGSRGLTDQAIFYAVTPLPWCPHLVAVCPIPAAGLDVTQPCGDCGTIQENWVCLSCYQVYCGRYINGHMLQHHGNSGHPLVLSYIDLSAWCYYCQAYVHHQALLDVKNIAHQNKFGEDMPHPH

[2] = Antiproliferative activity against human HFL1 cells incubated for 72 hrs by MTT assay; assay type: toxicity, cell-based
MDA-MB-231 = assay: cells; settings: Homo sapiens, MDA-MB-231, 72 h
Description: Antiproliferative activity against human MDA-MB-231 cells incubated for 72 hrs by MTT assay

Histone deacetylase 2 = Histone deacetylase 2 (Homo sapiens, UniProt Q92769); assay: Inhibition of HDAC2 derived from human HeLa cell extract using Ac-Leu-Gly-Lys (Ac)-AMC as substrate by fluorescence based assay
Histone deacetylase 2, sequence (Q92769 whole entry): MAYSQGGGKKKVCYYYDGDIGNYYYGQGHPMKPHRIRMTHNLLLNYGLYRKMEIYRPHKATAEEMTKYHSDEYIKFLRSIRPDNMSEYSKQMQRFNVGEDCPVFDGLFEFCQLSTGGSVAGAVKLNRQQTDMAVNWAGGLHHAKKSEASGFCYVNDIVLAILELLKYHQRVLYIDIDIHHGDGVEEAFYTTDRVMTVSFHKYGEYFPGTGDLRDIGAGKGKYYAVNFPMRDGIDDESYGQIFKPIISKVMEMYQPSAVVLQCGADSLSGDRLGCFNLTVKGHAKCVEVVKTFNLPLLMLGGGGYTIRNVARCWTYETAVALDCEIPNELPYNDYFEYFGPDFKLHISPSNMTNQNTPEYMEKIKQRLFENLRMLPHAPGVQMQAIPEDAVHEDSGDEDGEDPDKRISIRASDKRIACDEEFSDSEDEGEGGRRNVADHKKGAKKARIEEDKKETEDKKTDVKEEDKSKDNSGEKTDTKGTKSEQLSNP

MCF7 = assay: cells; settings: Homo sapiens, MCF7, 72 h
Description: Antiproliferative activity against human MCF7 cells incubated for 72 hrs by MTT assay

K562 = assay: Antiproliferative activity against human K562 cells incubated for 72 hrs by MTT assay; assay type: functional, cell-based; settings: K562, 72 h
A549 = assay: cells; settings: Homo sapiens, A549, 72 h
Description: Antiproliferative activity against human A549 cells incubated for 72 hrs by MTT assay

A2780 = assay: cells; settings: Homo sapiens, A2780, 72 h
Description: Antiproliferative activity against human A2780 cells incubated for 72 hrs by MTT assay

Histone deacetylase 1 = Histone deacetylase 1 (Homo sapiens, UniProt Q13547); assay: Inhibition of HDAC1 derived from human HeLa cell extract using Ac-Leu-Gly-Lys (Ac)-AMC as substrate by fluorescence based assay; assay type: cell-free
Histone deacetylase 1, sequence (Q13547 whole entry): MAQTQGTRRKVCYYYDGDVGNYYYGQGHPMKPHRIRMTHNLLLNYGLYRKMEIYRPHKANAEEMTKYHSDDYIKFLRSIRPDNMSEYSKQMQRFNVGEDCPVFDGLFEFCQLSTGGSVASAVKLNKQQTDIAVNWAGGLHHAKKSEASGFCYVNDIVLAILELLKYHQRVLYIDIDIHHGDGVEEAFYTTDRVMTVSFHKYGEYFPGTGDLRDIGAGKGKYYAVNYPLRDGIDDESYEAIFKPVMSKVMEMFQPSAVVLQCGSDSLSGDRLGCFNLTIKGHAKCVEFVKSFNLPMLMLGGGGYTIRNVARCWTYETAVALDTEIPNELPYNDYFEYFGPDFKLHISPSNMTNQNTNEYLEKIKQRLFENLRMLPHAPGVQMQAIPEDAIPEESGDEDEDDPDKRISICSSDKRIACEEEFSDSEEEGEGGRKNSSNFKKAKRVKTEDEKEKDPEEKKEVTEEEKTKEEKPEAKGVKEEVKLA

C=C(c1ccc(OC)c(O)c1)c1cc(C)nc2ccccc12
inhibition in vivo at 20 mg/kg (H22): 64.1%

C=C(c1ccc(OC)c(OC(C)C(=O)NO)c1)c1cc(C)nc2ccccc12 (stereo not drawn)
IC50 (Histone deacetylase 3): 8910 nM | IC50 (Histone deacetylase 7): > 10000 nM | IC50 (B16-F10): 30 nM | IC50 [1]: 4680 nM | IC50 at 72 h [2]: 95 nM | IC50 (MDA-MB-231): 28 nM | IC50 (Histone deacetylase 2): 2320 nM | IC50 (MCF7): 22 nM | IC50 (K562): 7 nM | IC50 (A549): 15 nM | IC50 (A2780): 14 nM | IC50 (Histone deacetylase 1): 1470 nM
